Laboratory results from US20120129833A1, “CYCLIC KETOENOLS FOR THERAPY” (BAYER PHARMA AKTIENGESELLSCHAFT, priority 2010, published 2012).

What was measured:
[1] = target: T1, recombinant human ACC1 (acetyl-CoA carboxylase 1) (Homo sapiens, UniProt Q13085); test: Human ACC1 enzyme assay (HTRF ADP detection); format: biochemical; settings: 50 μM ATP, 20 μM acetyl-CoA, 15 min pre-incubation, 20 min at 22° C.; read-out: ACC 1 IC50;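 note: ADP by-product quantified by competitive HTRF immunoassay with europium cryptate anti-ADP antibody and d2-labelled ADP, read after 1 h binding at 22 °C, enzyme near 2.5 ng/µl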
T1 construct: NM_198834, amino acids 39—end; FLAG (C); made in house; host or cells: baculovirus-transfected insect cells (Hi5)
Experimental: The basic principle of the assay is the measurement of adenosine diphosphate (ADP), which is formed as a by-product, by means of an HTRF®-based competitive immunoassay (HTRF=Homogeneous Time Resolved Fluorescence).
(§1) The amount of complex of d2-labelled ADP and europium cryptate-labelled anti-ADP antibody was then determined by measuring the resonance energy transfer of europium cryptate to d2.

[2] = target: T2, ACC2 (acetyl-CoA carboxylase 2) (Homo sapiens, UniProt O00763); test: Human ACC2 enzyme assay (HTRF ADP detection); format: biochemical; settings: 20 μM acetyl-CoA, 15 min pre-incubation, 20 min at 22° C.; read-out: ACC 2 IC50
T2 construct: catalogue no; 50201, amino acids 39—end, expressed in baculovirus-transfected Sf9 insect cells; His (C); purchased BPS Bioscience (San Diego, Calif.) 50201; host or cells: baculovirus-transfected Sf9 insect cells
T2 sequence (O00763 39-2458 limits assumed): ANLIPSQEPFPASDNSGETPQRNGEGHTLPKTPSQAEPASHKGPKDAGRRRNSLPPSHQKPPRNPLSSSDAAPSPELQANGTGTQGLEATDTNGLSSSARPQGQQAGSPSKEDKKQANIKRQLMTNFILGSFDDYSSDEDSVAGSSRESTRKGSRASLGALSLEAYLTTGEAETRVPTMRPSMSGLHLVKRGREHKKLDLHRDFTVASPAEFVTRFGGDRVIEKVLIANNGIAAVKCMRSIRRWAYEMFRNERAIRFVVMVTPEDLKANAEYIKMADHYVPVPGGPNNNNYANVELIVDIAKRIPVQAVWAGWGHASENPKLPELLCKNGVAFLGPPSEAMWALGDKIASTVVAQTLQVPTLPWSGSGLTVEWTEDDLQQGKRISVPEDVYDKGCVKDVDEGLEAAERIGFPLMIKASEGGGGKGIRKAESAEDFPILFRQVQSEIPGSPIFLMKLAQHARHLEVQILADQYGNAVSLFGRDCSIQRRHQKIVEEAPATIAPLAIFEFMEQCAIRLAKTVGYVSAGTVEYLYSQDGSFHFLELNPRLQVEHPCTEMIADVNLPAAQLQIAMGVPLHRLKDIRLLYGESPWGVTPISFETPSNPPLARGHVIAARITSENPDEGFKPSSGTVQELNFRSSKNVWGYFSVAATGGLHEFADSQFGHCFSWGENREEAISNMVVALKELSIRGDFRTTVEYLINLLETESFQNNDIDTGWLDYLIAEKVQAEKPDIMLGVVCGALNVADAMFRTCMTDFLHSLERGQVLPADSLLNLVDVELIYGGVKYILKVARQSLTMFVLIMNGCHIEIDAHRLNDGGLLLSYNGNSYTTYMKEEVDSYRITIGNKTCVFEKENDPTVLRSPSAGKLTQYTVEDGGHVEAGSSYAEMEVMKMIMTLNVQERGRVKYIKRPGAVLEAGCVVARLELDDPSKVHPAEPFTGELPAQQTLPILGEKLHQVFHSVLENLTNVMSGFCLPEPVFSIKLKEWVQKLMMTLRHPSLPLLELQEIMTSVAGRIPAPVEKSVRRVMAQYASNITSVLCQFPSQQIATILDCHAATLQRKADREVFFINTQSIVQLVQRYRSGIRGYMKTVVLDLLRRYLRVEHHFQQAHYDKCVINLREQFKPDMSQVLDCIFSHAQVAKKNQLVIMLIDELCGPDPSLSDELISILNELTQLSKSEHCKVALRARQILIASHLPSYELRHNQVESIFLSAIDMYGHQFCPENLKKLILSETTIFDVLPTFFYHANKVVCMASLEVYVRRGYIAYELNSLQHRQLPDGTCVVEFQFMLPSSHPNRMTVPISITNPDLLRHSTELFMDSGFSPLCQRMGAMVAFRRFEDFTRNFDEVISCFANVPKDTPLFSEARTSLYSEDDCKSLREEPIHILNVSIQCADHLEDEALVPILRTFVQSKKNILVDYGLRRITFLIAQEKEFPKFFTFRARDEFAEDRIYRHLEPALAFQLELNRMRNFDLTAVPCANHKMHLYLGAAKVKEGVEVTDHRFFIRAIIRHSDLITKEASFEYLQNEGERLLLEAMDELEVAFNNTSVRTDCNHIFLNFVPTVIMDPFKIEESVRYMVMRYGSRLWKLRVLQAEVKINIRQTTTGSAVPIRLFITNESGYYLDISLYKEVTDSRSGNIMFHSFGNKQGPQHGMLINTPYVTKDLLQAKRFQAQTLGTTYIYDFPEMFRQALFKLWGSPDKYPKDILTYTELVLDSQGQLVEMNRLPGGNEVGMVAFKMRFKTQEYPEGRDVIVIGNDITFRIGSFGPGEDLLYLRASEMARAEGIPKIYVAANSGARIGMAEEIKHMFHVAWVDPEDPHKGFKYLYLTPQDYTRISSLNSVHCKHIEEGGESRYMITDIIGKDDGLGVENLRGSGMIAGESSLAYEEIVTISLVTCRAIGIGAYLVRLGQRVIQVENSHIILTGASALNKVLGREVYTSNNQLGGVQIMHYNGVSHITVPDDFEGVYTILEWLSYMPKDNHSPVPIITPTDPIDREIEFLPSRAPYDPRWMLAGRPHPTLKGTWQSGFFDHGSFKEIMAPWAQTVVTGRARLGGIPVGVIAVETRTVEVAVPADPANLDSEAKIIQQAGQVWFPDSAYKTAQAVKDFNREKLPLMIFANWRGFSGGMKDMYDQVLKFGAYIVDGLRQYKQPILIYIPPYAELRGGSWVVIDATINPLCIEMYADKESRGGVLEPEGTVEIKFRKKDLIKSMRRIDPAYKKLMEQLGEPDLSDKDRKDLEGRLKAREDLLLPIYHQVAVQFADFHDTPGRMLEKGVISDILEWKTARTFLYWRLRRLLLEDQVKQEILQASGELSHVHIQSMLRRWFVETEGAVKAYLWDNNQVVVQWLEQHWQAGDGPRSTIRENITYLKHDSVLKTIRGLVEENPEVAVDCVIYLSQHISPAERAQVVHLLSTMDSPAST
Experimental: The inhibitory activity of the substances of this invention with regard to acetyl-CoA carboxylase 2 (ACC2) was measured using the ACC2 assay described in the paragraphs below. The basic principle of the assay is the measurement of adenosine diphosphate (ADP), which is formed as a by-product, by means of an HTRF®-based competitive immunoassay (HTRF=Homogeneous Time Resolved Fluorescence).
as §1

Row | Structure (SMILES) | IC50 [1] [nM] | IC50 [2] [nM]
1 | Cc1ccc(-c2ccc(Cl)cc2)cc1C1=C(O)CC(C)CC1=O (stereo not shown) [Example 7-1, 2-(4′-chloro-4-methylbiphenyl-3-yl)-3-hydroxy-5-methylcyclohex-2-en-1-one] | 678 | > 20000
2 | CCOC1CCCC2(C1)NC(=O)C(c1c(C)ccc(-c3ccc(Cl)cc3)c1C)=C2O (stereo not shown) [Example 1-73, 3-(4′-chloro-2,4-dimethylbiphenyl-3-yl)-7-ethoxy-4-hydroxy-1-azaspiro[4.5]dec-3-en-2-one] | 912 | 4970
3 | CC1COC2(CCC3(CC2)NC(=O)C(c2cc(-c4ccc(Cl)cc4)ccc2Cl)=C3O)O1 (stereo not shown) [Example 1-68, 11-(4,4′-dichlorobiphenyl-3-yl)-12-hydroxy-2-methyl-1,4-dioxa-9-azadispiro[4.2.4.2]tetradec-11-en-10-one] | 489 | 4860
4 | Cc1ccc(-c2ccc(F)cc2)c(C)c1C1=C(O)C2(CCCCC2)NC1=O [Example 1-40, 3-(4′-fluoro-2,4-dimethylbiphenyl-3-yl)-4-hydroxy-1-azaspiro[4.5]dec-3-en-2-one] | 1200 | 15000
5 | CN1C(=O)C(c2cc(-c3ccc(Cl)cc3)ccc2Cl)C(=O)N1C [Example 8-15, 4-(4,4′-dichlorobiphenyl-3-yl)-1,2-dimethyl-1H-pyrazole-3,5(2H,4H)-dione] | 1970 | > 20000
6 | Cc1ccc(-c2ccc(Cl)cc2)cc1C1=C(O)C(C)(C)CNC1=O [Example 9-2, 3-(4′-chloro-4-methylbiphenyl-3-yl)-4-hydroxy-5,5-dimethyl-5,6-dihydropyridin-2(1H)-one] | 806 | 9080
7 | CCCC1CCC2(CC1)CC(=O)C(c1cc(-c3ccc(Cl)cc3)ccc1C)=C2O (stereo not shown) [Example 6-6, 3-(4′-chloro-4-methylbiphenyl-3-yl)-4-hydroxy-8-propylspiro[4.5]dec-3-en-2-one] | 923 | 783
8 | CC[C@]1(OC)CC[C@@]2(CC1)NC(=O)C(c1c(C)ccc(-c3ccc(Cl)cc3)c1C)=C2O [Example 1-88, (5r,8r)-3-(4′-chloro-2,4-dimethylbiphenyl-3-yl)-8-ethyl-4-hydroxy-8-methoxy-1-azaspiro[4.5]dec-3-en-2-one] | 825 | 6900
9 | O=C1N[C@]2(CC[C@@H](OCC(F)(F)F)CC2)C(O)=C1c1cc(-c2ccc(Cl)cc2)ccc1Cl [Example 1-29, (5s,8s)-3-(4,4′-dichlorobiphenyl-3-yl)-4-hydroxy-8-(2,2,2-trifluoroethoxy)-1-azaspiro[4.5]dec-3-en-2-one] | 270 | 1900
10 | Cc1ccc(-c2ccc(Cl)cc2)cc1C1=C(O)C2(CCC3(CC2)OCC(C)CO3)NC1=O (stereo not shown) [Example 1-66, 3-(4′-chloro-4-methylbiphenyl-3-yl)-4-hydroxy-1′-methyl-9,13-dioxa-1-azadispiro[4.2.5.2]pentadec-3-en-2-one] | 409 | 1540
11 | Cc1ccc(-c2ccc(Cl)cc2)c(C)c1C1=C(O)C2(CCC3(CC2)OCCO3)NC1=O [Example 1-70, 11-(4′-chloro-2,4-dimethylbiphenyl-3-yl)-12-hydroxy-1,4-dioxa-9-azadispiro[4.2.4.2]tetradec-11-en-10-one] | 675 | 1840
12 | COC1CCC2(CC1)OC(=O)C(c1c(C)ccc(-c3ccc(Cl)cc3)c1C)=C2O (stereo not shown) [Example 2-34, 3-(4′-chloro-2,4-dimethylbiphenyl-3-yl)-4-hydroxy-8-methoxy-1-oxaspiro[4.5]dec-3-en-2-one] | 286 | 1270
13 | CO[C@H]1CC[C@]2(CC1)NC(=O)C(c1c(C)cc(C)c(-c3ccc(F)cc3)c1C)=C2O [Example 1-42, (5s,8s)-3-(4′-fluoro-2,4,6-trimethylbiphenyl-3-yl)-4-hydroxy-8-methoxy-1-azaspiro[4.5]dec-3-en-2-one] | > 20000 | 669
14 | Cc1ccc(-c2ccc(Cl)cc2)cc1C1=C(O)CN(C(C)C)C1=O [Example 1-17, 3-(4′-chloro-4-methylbiphenyl-3-yl)-4-hydroxy-1-(propan-2-yl)-1,5-dihydro-2H-pyrrol-2-one] | 334 | 4020
